Measurements taken from patent US20250154138A1, “Small Molecule IL-17A Modulators” (BeiGene, Ltd., priority 2022, published 2025).

Key:
[1] = molecular target: human IL-17A / human IL-17RA (Homo sapiens (Human), UniProt Q16552); assay: Human IL-17A biochemical assay (HTRF, blocking of IL-17A binding to IL-17RA); conditions: 0.4 nM IL-17A, 0.3 nM IL-17RA, max compound concentration 10 uM
Summary of the method: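 0.4 nM hIL-17A + cpd (10 uM top, 2.7x, 10 pt), 3 h RT, HEPES pH 7.5 buffer w/ BSA, DTT, Tween 20; + 0.3 nM hIL-17RA 1 h RT; Tb/XL665 Abs 1 h; HTRF 620/665 ratio; 4PL IC50.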

[2] = tested on: IL-17-induced GROα secretion from HT-29 cells; assay: GROα release assay in human colorectal adenocarcinoma epithelial cell (HT-29, ELISA); type: cell-based; conditions: Homo sapiens, HT-29, 48 h, 10 ng/mL IL-17A, highest concentration 10 μM, read-out: Cellular assay HT29 cell/CXCL1 IC50
Summary of the method: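 HT-29 cells were exposed 48 h at 37°C to IL-17A (final 10 ng/mL) preincubated 15 min with compound (4-fold dilutions, top 10 μM). Secreted GROα was quantified by ELISA against a standard curve, and IC50 obtained by four-parameter fitting.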

human IL-17A / human IL-17RA, sequence (Q16552 24-155): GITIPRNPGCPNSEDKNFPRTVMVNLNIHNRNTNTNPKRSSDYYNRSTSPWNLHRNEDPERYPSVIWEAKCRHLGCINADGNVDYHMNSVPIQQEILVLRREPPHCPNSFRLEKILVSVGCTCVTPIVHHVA

| Compound | IC50 [1] | IC50 [2] |
| --- | --- | --- |
| Cc1nocc1C(=O)N[C@H](C(=O)Nc1ccc2c(c1)CC(N1C[C@@H](C(F)(F)F)NC1=O)C2)C(C1CC1)C1CC1 (stereo partly drawn) [Example 218, N-((2S)-1,1-dicyclopropyl-3-oxo-3-((2-((S)-2-oxo-4-(trifluoromethyl)imidazolidin-1-yl)-2,3-dihydro-1H-inden-5-yl)amino)propan-2-yl)-3-methylisoxazole-4-carboxamide] | 141 nM | 385 nM |
| Cc1ccc(F)cc1NC(=O)C1(N2CC3(CC3)CNC2=O)Cc2ccc(NC(=O)[C@@H](NC(=O)c3nonc3C)C3CCC(F)(F)CC3)cc2C1 (stereo partly drawn) [Example 219, N-((1S)-1-(4,4-difluorocyclohexyl)-2-((2-((5-fluoro-2-methylphenyl)carbamoyl)-2-(6-oxo-5,7-diazaspiro[2.5]octan-5-yl)-2,3-dihydro-1H-inden-5-yl)amino)-2-oxoethyl)-4-methyl-1,2,5-oxadiazole-3-carboxamide] | 107 nM | 297 nM |
| Cc1nonc1C(=O)N[C@H](C(=O)Nc1ccc2c(c1)CC(C(=O)Nc1cccc(Cl)c1)(N1CC3(CC3)CNC1=O)C2)C1CCC(F)(F)CC1 (stereo partly drawn) [Example 220, N-((1S)-2-((2-((3-chlorophenyl)carbamoyl)-2-(6-oxo-5,7-diazaspiro[2.5]octan-5-yl)-2,3-dihydro-1H-inden-5-yl)amino)-1-(4,4-difluorocyclohexyl)-2-oxoethyl)-4-methyl-1,2,5-oxadiazole-3-carboxamide] | 169 nM | 80.6 nM |
| Cc1ccc(NC(=O)C2(N3CC4(CC4)CNC3=O)Cc3ccc(NC(=O)[C@@H](NC(=O)c4nonc4C)C4CCC(F)(F)CC4)cc3C2)cc1 (stereo partly drawn) [Example 221, N-((1S)-1-(4,4-difluorocyclohexyl)-2-oxo-2-((2-(6-oxo-5,7-diazaspiro[2.5]octan-5-yl)-2-(p-tolylcarbamoyl)-2,3-dihydro-1H-inden-5-yl)amino)ethyl)-4-methyl-1,2,5-oxadiazole-3-carboxamide] | 47.8 nM | 111 nM |
| Cc1nonc1C(=O)N[C@H](C(=O)Nc1ccc2c(c1)CC(c1cn3ccccc3n1)(N1CC3(CC3)CNC1=O)C2)C(C1CC1)C1CC1 (stereo partly drawn) [Example 222, N-((2S)-1,1-dicyclopropyl-3-((2-(imidazo[1,2-a]pyridin-2-yl)-2-(6-oxo-5,7-diazaspiro[2.5]octan-5-yl)-2,3-dihydro-1H-inden-5-yl)amino)-3-oxopropan-2-yl)-4-methyl-1,2,5-oxadiazole-3-carboxamide] | 34.3 nM | 66.6 nM |
| Cc1nonc1C(=O)N[C@H](C(=O)Nc1ccc2c(c1)CC(c1cn3ccccc3n1)(N1CC3(CC3)CNC1=O)C2)C1CCC(F)(F)CC1 (stereo partly drawn) [Example 223, N-((1S)-1-(4,4-difluorocyclohexyl)-2-((2-(imidazo[1,2-a]pyridin-2-yl)-2-(6-oxo-5,7-diazaspiro[2.5]octan-5-yl)-2,3-dihydro-1H-inden-5-yl)amino)-2-oxoethyl)-4-methyl-1,2,5-oxadiazole-3-carboxamide] | 118 nM | 606 nM |
| Cn1nccc1C(=O)NC(C(=O)Nc1ccc2c(c1)CC(N1C[C@@H](C(F)(F)F)NC1=O)C2)C1Cc2ccc(Cl)cc2C2(CC2)C1 (stereo partly drawn) [Example 224, N-(1-(7′-chloro-3′,4′-dihydro-2′H-spiro[cyclopropane-1,1′-naphthalen]-3′-yl)-2-oxo-2-((2-((S)-2-oxo-4-(trifluoromethyl)imidazolidin-1-yl)-2,3-dihydro-1H-inden-5-yl)amino)ethyl)-1-methyl-1H-pyrazole-5-carboxamide] | 47.8 nM | 85.1 nM |
| COCC1(N2CC(C(F)(F)F)NC2=O)Cc2ccc(NC(=O)[C@@H](NC(=O)c3nonc3C)C(C3CC3)C3CC3)cc2C1 (stereo partly drawn) [Example 225, N-((2S)-1,1-dicyclopropyl-3-((2-(methoxymethyl)-2-(2-oxo-4-(trifluoromethyl)imidazolidin-1-yl)-2,3-dihydro-1H-inden-5-yl)amino)-3-oxopropan-2-yl)-4-methyl-1,2,5-oxadiazole-3-carboxamide] | 1270 nM | 2320 nM |
| Cc1nonc1C(=O)N[C@H](C(=O)Nc1ccc2c(c1)CC(C#N)(N1CC3(CC3)CNC1=O)C2)C(C1CC1)C1CC1 (stereo partly drawn) [Example 226, N-((2S)-1-((2-cyano-2-(6-oxo-5,7-diazaspiro[2.5]octan-5-yl)-2,3-dihydro-1H-inden-5-yl)amino)-3,3-dicyclopropyl-1-oxopropan-2-yl)-4-methyl-1,2,5-oxadiazole-3-carboxamide] | 50.4 nM | 225 nM |
| Cc1nonc1C(=O)NC(C(=O)Nc1ccc2c(c1)CC(N1C[C@@H](C(F)(F)F)NC1=O)C2)C1Cc2ccc(Cl)cc2C2(CC2)C1 (stereo partly drawn) [Example 227, N-(1-(7′-chloro-3′,4′-dihydro-2′H-spiro[cyclopropane-1,1′-naphthalen]-3′-yl)-2-oxo-2-((2-((S)-2-oxo-4-(trifluoromethyl)imidazolidin-1-yl)-2,3-dihydro-1H-inden-5-yl)amino)ethyl)-4-methyl-1,2,5-oxadiazole-3-carboxamide] | 112 nM | 168 nM |
| Cc1nonc1C(=O)N[C@H](C(=O)Nc1ccc2c(c1)CC(C(=O)NCc1cccnn1)(N1CC3(CC3)CNC1=O)C2)C1CCC(F)(F)CC1 (stereo partly drawn) [Example 228, N-((1S)-1-(4,4-difluorocyclohexyl)-2-oxo-2-((2-(6-oxo-5,7-diazaspiro[2.5]octan-5-yl)-2-((pyridazin-3-ylmethyl)carbamoyl)-2,3-dihydro-1H-inden-5-yl)amino)ethyl)-4-methyl-1,2,5-oxadiazole-3-carboxamide] | 15.9 nM | 49.1 nM |
| Cc1cccc(NC(=O)C2(N3CC4(CC4)CNC3=O)Cc3ccc(NC(=O)[C@@H](NC(=O)c4nonc4C)C4CCC(F)(F)CC4)cc3C2)c1 (stereo partly drawn) [Example 229, N-((1S)-1-(4,4-difluorocyclohexyl)-2-oxo-2-((2-(6-oxo-5,7-diazaspiro[2.5]octan-5-yl)-2-(m-tolylcarbamoyl)-2,3-dihydro-1H-inden-5-yl)amino)ethyl)-4-methyl-1,2,5-oxadiazole-3-carboxamide] | 28.6 nM | 85.1 nM |
| Cc1nonc1C(=O)N[C@H](C(=O)Nc1ccc2c(c1)CC(C1CCCC1)(N1CC3(CC3)CNC1=O)C2)C(C1CC1)C1CC1 (stereo partly drawn) [Example 230, N-((2S)-1-((2-cyclopentyl-2-(6-oxo-5,7-diazaspiro[2.5]octan-5-yl)-2,3-dihydro-1H-inden-5-yl)amino)-3,3-dicyclopropyl-1-oxopropan-2-yl)-4-methyl-1,2,5-oxadiazole-3-carboxamide] | 4460 nM | 9470 nM |
| Cc1nonc1C(=O)N[C@H](C(=O)Nc1ccc2c(c1)CC(N1C[C@@H](C(C)C)NC1=O)C2)C(C1CC1)C1CC1 (stereo partly drawn) [Example 231, N-((2S)-1,1-dicyclopropyl-3-((2-((R)-4-isopropyl-2-oxoimidazolidin-1-yl)-2,3-dihydro-1H-inden-5-yl)amino)-3-oxopropan-2-yl)-4-methyl-1,2,5-oxadiazole-3-carboxamide] | 1080 nM | 1970 nM |
| Cc1nonc1C(=O)N[C@H](C(=O)Nc1ccc2c(c1)CC(C(=O)NC1(c3ccccc3F)CC1)(N1CC3(CC3)CNC1=O)C2)C1CCC(F)(F)CC1 (stereo partly drawn) [Example 232, N-((1S)-1-(4,4-difluorocyclohexyl)-2-((2-((1-(2-fluorophenyl)cyclopropyl)carbamoyl)-2-(6-oxo-5,7-diazaspiro[2.5]octan-5-yl)-2,3-dihydro-1H-inden-5-yl)amino)-2-oxoethyl)-4-methyl-1,2,5-oxadiazole-3-carboxamide] | 117 nM | 158 nM |
